How the values were obtained:
Mps-1 kinase [1] = target: T1, Mps-1 kinase (Homo sapiens, UniProt P33981); assay: Mps-1 kinase assay with 2 mM ATP (TR-FRET)
T1 sequence (P33981 1-857): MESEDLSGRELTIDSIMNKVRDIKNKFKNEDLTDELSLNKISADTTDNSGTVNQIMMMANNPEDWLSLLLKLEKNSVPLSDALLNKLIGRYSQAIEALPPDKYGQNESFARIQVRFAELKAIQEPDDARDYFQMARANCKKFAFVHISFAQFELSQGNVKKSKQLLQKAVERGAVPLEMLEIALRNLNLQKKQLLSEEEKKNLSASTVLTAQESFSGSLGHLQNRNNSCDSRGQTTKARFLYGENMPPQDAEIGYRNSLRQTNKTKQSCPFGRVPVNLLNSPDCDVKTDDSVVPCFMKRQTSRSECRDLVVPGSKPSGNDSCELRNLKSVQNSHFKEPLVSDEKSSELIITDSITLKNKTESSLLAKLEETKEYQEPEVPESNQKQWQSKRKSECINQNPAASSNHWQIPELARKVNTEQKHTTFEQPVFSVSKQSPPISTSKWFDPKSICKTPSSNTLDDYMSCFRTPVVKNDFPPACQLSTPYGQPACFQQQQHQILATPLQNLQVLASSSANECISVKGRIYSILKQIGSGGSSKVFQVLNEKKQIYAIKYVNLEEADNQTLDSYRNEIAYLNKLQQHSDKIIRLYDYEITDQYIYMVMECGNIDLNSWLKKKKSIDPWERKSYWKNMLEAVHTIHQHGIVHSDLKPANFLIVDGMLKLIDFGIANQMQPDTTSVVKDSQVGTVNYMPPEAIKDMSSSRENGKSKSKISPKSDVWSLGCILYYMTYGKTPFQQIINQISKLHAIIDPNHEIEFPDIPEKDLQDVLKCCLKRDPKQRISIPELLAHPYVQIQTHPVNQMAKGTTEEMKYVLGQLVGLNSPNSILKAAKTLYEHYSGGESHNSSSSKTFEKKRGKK

Mps-1 kinase [2] = target: T1, Mps-1 kinase; assay: Mps-1 kinase assay with 10 μM ATP (TR-FRET)

CS(=O)(=O)c1ccc(Nc2nc3ccc(-c4ccc(NC(=O)Cc5ccc(F)cc5)cc4)cn3n2)c(F)c1 [Example 12.39, N-[4-(2-{[2-fluoro-4-(methylsulfonyl)phenyl]-amino}[1,2,4]triazolo[1,5-a]pyridin-6-yl)phenyl]-2-(4-fluorophenyl)acetamide]
IC50 (Mps-1 kinase [1]): 16 nM | IC50 (Mps-1 kinase [2]): ≤ 1 nM

COc1cc(S(C)(=O)=O)ccc1Nc1nc2ccc(-c3ccc(NC(=O)Cc4ccc(F)c(C)c4)cc3)cn2n1 [Example 12.40, 2-(4-fluoro-3-methylphenyl)-N-[4-(2-{[2-methoxy-4-(methylsulfonyl)phenyl]-amino}[1,2,4]triazolo[1,5-a]pyridin-6-yl)phenyl]-acetamide]
IC50 (Mps-1 kinase [1]): 9.9 nM | IC50 (Mps-1 kinase [2]): ≤ 1 nM

COc1cc(S(C)(=O)=O)ccc1Nc1nc2ccc(-c3ccc(NC(=O)Cc4ccc(Cl)cc4)cc3)cn2n1 [Example 12.41, 2-(4-chlorophenyl)-N-[4-(2-{[2-methoxy-4-(methyl-sulfonyl)phenyl]amino}-[1,2,4]triazolo[1,5-a]pyridin-6-yl)phenyl]acetamide]
IC50 (Mps-1 kinase [1]): 7.2 nM | IC50 (Mps-1 kinase [2]): ≤ 1 nM

COc1cc(S(C)(=O)=O)ccc1Nc1nc2ccc(-c3ccc(NC(=O)Cc4ccccc4)cc3)cn2n1 [Example 12.42, N-[4-(2-{[2-methoxy-4-(methylsulfonyl)phenyl]-amino}[1,2,4]triazolo[1,5-a]pyridin-6-yl)phenyl]-2-phenylacetamide]
IC50 (Mps-1 kinase [1]): 12 nM | IC50 (Mps-1 kinase [2]): ≤ 1 nM

COc1cc(C(N)=O)ccc1Nc1nc2ccc(-c3ccc(C(=O)NCc4ccc(F)cc4)cc3)cn2n1 [Example 12.43, 4-[(6-{4-[(4-fluorobenzyl)-carbamoyl]phenyl}[1,2,4]triazolo [1,5-a]pyridin-2-yl)-amino]-3-methoxy-benzamide]
IC50 (Mps-1 kinase [1]): ≤ 1 nM | IC50 (Mps-1 kinase [2]): ≤ 1 nM

COCCNC(=O)c1ccc(Nc2nc3ccc(-c4ccc(C(=O)NCc5ccc(F)cc5)cc4)cn3n2)c(OC)c1 [Example 12.44, 4-[(6-{4-[(4-fluorobenzyl)-carbamoyl]phenyl}[1,2,4]triazolo [1,5-a]pyridin-2-yl)-amino]-3-methoxy-N-(2-methoxyethyl)benzamide]
IC50 (Mps-1 kinase [1]): 1.6 nM | IC50 (Mps-1 kinase [2]): ≤ 1 nM

COc1cc(C(=O)NCCF)ccc1Nc1nc2ccc(-c3ccc(C(=O)NCc4ccc(F)cc4)cc3)cn2n1 [Example 12.45, 4-[(6-{4-[(4-fluorobenzyl)-carbamoyl]phenyl}[1,2,4]triazolo [1,5-a]pyridin-2-yl)-amino]-N-(2-fluoroethyl)-3-methoxybenzamide]
IC50 (Mps-1 kinase [1]): 1.4 nM | IC50 (Mps-1 kinase [2]): ≤ 1 nM

COc1cc(C(=O)N(C)C)ccc1Nc1nc2ccc(-c3ccc(C(=O)NCc4ccc(F)cc4)cc3)cn2n1 [Example 12.46, 4-[(6-{4-[(4-fluorobenzyl)-carbamoyl]phenyl}[1,2,4]triazolo [1,5-a]pyridin-2-yl)-amino]-3-methoxy-N,N-dimethylbenzamide]
IC50 (Mps-1 kinase [1]): 3.5 nM | IC50 (Mps-1 kinase [2]): ≤ 1 nM

COc1cc(C(=O)NCC(F)F)ccc1Nc1nc2ccc(-c3ccc(C(=O)NCc4ccc(F)cc4)cc3)cn2n1 [Example 12.47, N-(2,2-difluoroethyl)-4-[(6-{4-[(4-fluorobenzyl)-carbamoyl]phenyl}[1,2,4]triazolo [1,5-a]pyridin-2-yl)amino]-3-methoxy-benzamide]
IC50 (Mps-1 kinase [1]): 2.4 nM | IC50 (Mps-1 kinase [2]): ≤ 1 nM

COc1cc(C(=O)NCCN(C)C)ccc1Nc1nc2ccc(-c3ccc(C(=O)NCc4ccc(F)cc4)cc3)cn2n1 [Example 12.48, N-[2-(dimethylamino)ethyl]-4-[(6-{4-[(4-fluorobenzyl)-carbamoyl]phenyl}[1,2,4]triazolo [1,5-a]pyridin-2-yl)amino]-3-methoxy-benzamide]
IC50 (Mps-1 kinase [1]): 1.3 nM | IC50 (Mps-1 kinase [2]): ≤ 1 nM

COc1cc(C(=O)N(C)CCN(C)C)ccc1Nc1nc2ccc(-c3ccc(C(=O)NCc4ccc(F)cc4)cc3)cn2n1 [Example 12.49, N-[2-(dimethylamino)ethyl]-4-[(6-{4-[(4-fluorobenzyl)-carbamoyl]phenyl}[1,2,4]triazolo [1,5-a]pyridin-2-yl)-amino]-3-methoxy-N-methylbenzamide]
IC50 (Mps-1 kinase [1]): 3.4 nM | IC50 (Mps-1 kinase [2]): ≤ 1 nM

COc1cc(C(=O)NCCCF)ccc1Nc1nc2ccc(-c3ccc(C(=O)NCc4ccc(F)cc4)cc3)cn2n1 [Example 12.50, 4-[(6-{4-[(4-fluorobenzyl)-carbamoyl]phenyl}[1,2,4]triazolo [1,5-a]pyridin-2-yl)-amino]-N-(3-fluoropropyl)-3-methoxybenzamide]
IC50 (Mps-1 kinase [1]): 3.1 nM | IC50 (Mps-1 kinase [2]): ≤ 1 nM

COc1cc(S(=O)(=O)NC(C)(C)C)ccc1Nc1nc2ccc(-c3ccc(C(=O)NCc4ccc(F)cc4)cc3)cn2n1 [Example 12.52, 4-(2-{[4-(tert-butyl-sulfamoyl)-2-methoxy-phenyl]amino}[1,2,4]-triazolo[1,5-a]pyridin-6-yl)-N-(4-fluorobenzyl)-benzamide]
IC50 (Mps-1 kinase [1]): 14 nM | IC50 (Mps-1 kinase [2]): ≤ 1 nM

CCN(Cc1ccc(Nc2nc3ccc(-c4ccc(C(=O)NCc5ccc(F)cc5)cc4)cn3n2)c(OC)c1)C(C)(C)CO [Example 12.53, 4-{2-[(4-{[ethyl(1-hydroxy-2-methylpropan-2-yl)amino]-methyl}-2-methoxyphenyl)-amino][1,2,4]triazolo[1,5-a]pyridin-6-yl}-N-(4-fluoro-benzyl)benzamide]
IC50 (Mps-1 kinase [1]): 6.9 nM | IC50 (Mps-1 kinase [2]): ≤ 1 nM

COc1cc(C(C)(C)O)ccc1Nc1nc2ccc(-c3ccc(C(=O)NCc4ccc(F)cc4)cc3)cn2n1 [Example 12.54, N-(4-fluorobenzyl)-4-(2-{[4-(2-hydroxypropan-2-yl)-2-methoxyphenyl]amino}-[1,2,4]triazolo[1,5-a]pyridin-6-yl)benzamide]
IC50 (Mps-1 kinase [1]): 1.1 nM | IC50 (Mps-1 kinase [2]): ≤ 1 nM

CCOc1cc(C(=O)NCCN(C)C)ccc1Nc1nc2ccc(-c3ccc(C(=O)NCc4ccc(F)cc4)cc3)cn2n1 [Example 12.55, N-[2-(dimethylamino)ethyl]-3-ethoxy-4-[(6-{4-[(4-fluoro-benzyl)carbamoyl]phenyl}-[1,2,4]triazolo[1,5-a]pyridin-2-yl)amino]benzamide]
IC50 (Mps-1 kinase [1]): ≤ 1 nM | IC50 (Mps-1 kinase [2]): ≤ 1 nM

CCOc1cc(C(=O)N(C)CC)ccc1Nc1nc2ccc(-c3ccc(C(=O)NCc4ccc(F)cc4)cc3)cn2n1 [Example 12.56, 3-ethoxy-N-ethyl-4-[(6-{4-[(4-fluorobenzyl)carbamoyl]phenyl}[1,2,4]triazolo[1,5-a]pyridin-2-yl)amino]-N-methylbenzamide]
IC50 (Mps-1 kinase [1]): ≤ 1 nM | IC50 (Mps-1 kinase [2]): ≤ 1 nM

CCOc1cc(C(=O)NCCF)ccc1Nc1nc2ccc(-c3ccc(C(=O)NCc4ccc(F)cc4)cc3)cn2n1 [Example 12.57, 3-ethoxy-4-[(6-{4-[(4-fluoro-benzyl)carbamoyl]phenyl}-[1,2,4]triazolo[1,5-a]pyridin 2-yl)amino]-N-(2-fluoroethyl)benzamide]
IC50 (Mps-1 kinase [1]): ≤ 1 nM | IC50 (Mps-1 kinase [2]): ≤ 1 nM

CN(C)CCNC(=O)c1ccc(Nc2nc3ccc(-c4ccc(C(=O)NCc5ccc(F)cc5)cc4)cn3n2)c(OCC(F)(F)F)c1 [Example 12.58, N-[2-(dimethylamino)ethyl]-4-[(6-{4-[(4-fluorobenzyl)-carbamoyl]phenyl}[1,2,4]triazolo [1,5-a]pyridin-2-yl)-amino]-3-(2,2,2-trifluoro-ethoxy)benzamide]
IC50 (Mps-1 kinase [1]): ≤ 1 nM | IC50 (Mps-1 kinase [2]): ≤ 1 nM

O=C(NCCF)c1ccc(Nc2nc3ccc(-c4ccc(C(=O)NCc5ccc(F)cc5)cc4)cn3n2)c(OCC(F)(F)F)c1 [Example 12.59, 4-[(6-{4-[(4-fluorobenzyl)-carbamoyl]phenyl}[1,2,4]triazolo [1,5-a]pyridin-2-yl)-amino]-N-(2-fluoroethyl)-3-(2,2,2-trifluoroethoxy)-benzamide]
IC50 (Mps-1 kinase [1]): ≤ 1 nM | IC50 (Mps-1 kinase [2]): ≤ 1 nM

NC(=O)c1ccc(Nc2nc3ccc(-c4ccc(C(=O)NCc5ccc(F)cc5)cc4)cn3n2)c(OC(F)(F)F)c1 [Example 12.60, 4-[(6-{4-[(4-fluorobenzyl)-carbamoyl]phenyl}[1,2,4]triazolo [1,5-K]pyridin-2-yl)-amino]-3-(trifluoro-methoxy)benzamide]
IC50 (Mps-1 kinase [1]): 5 nM | IC50 (Mps-1 kinase [2]): ≤ 1 nM

CCS(=O)(=O)c1ccc(Nc2nc3ccc(-c4ccc(C(=O)NCc5ccc(F)cc5)cc4)cn3n2)c(OC(F)F)c1 [Example 12.61, 4-(2-{[2-(difluoromethoxy)-4-(ethylsulfonyl)phenyl]-amino}[1,2,4]triazolo[1,5-a]pyridin-6-yl)-N-(4-fluorobenzyl)benzamide]
IC50 (Mps-1 kinase [1]): 6.1 nM | IC50 (Mps-1 kinase [2]): ≤ 1 nM

CC(C)S(=O)(=O)c1ccc(Nc2nc3ccc(-c4ccc(C(=O)NCc5ccc(F)cc5)cc4)cn3n2)c(OC(F)F)c1 [Example 12.62, 4-(2-{[2-(difluoromethoxy)-4-(propan-2-ylsulfonyl)-phenyl]amino}[1,2,4]-triazolo[1,5-a]pyridin-6-yl)-N-(4-fluorobenzyl)-benzamide]
IC50 (Mps-1 kinase [1]): 3.5 nM | IC50 (Mps-1 kinase [2]): ≤ 1 nM

Reference: patent US20140120087A1, “TRIAZOLOPYRIDINES” (BAYER INTELLECTUAL PROPERTY GMBH, priority 2011, published 2014)
